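Method: 48-hour compound exposure of cells in 96-well plates, five concentrations, linear interpolation of endpoints. Abbreviation: GI50, concentration required for 50% inhibition of growth.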 Activity calls are given as the source filed them. Cut-off read from the data, not from the text of the source: active = GI50 up to about 1.1 µM and inactive = higher.
Tests used:
Experiment in all cases: NCI-60 cell line screen, 48 h
DU-145 = test system: DU-145
UO-31 = test system: UO-31
PC-3 = test system: PC-3
HOP-62 = test system: HOP-62
U-251 = test system: U-251
UACC-62 = test system: UACC-62
SN12C = test system: SN12C
RPMI-8226 = test system: RPMI-8226
SK-MEL-28 = test system: SK-MEL-28
UACC-257 = test system: UACC-257
IGROV-1 = test system: IGROV-1
BT-549 = test system: BT-549
HOP-92 = test system: HOP-92
MDA-MB-231 = test system: MDA-MB-231
NCI-H522 = test system: NCI-H522
SF-539 = test system: SF-539
HCC 2998 = test system: HCC 2998
OVCAR-3 = test system: OVCAR-3
NCI-H226 = test system: NCI-H226
MOLT-4 = test system: MOLT-4
COLO 205 = test system: COLO 205
RXF 393 = test system: RXF 393
SK-OV-3 = test system: SK-OV-3
SF-268 = test system: SF-268
MDA-MB-435 = test system: MDA-MB-435
HT-29 = test system: HT-29
HCT-15 = test system: HCT-15
TK-10 = test system: TK-10
A549 = test system: A549
LOX IMVI = test system: LOX IMVI
ACHN = test system: ACHN
M14 = test system: M14
SR = test system: SR
SK-MEL-2 = test system: SK-MEL-2
CAKI-1 = test system: CAKI-1
HL-60 = test system: HL-60
SK-MEL-5 = test system: SK-MEL-5
Hs-578T = test system: Hs-578T
786-0 = test system: 786-0
SNB-19 = test system: SNB-19
OVCAR-8 = test system: OVCAR-8
MCF7 = test system: MCF7
CCRF-CEM = test system: CCRF-CEM
HCT-116 = test system: HCT-116
SF-295 = test system: SF-295
NCI/ADR-RES = test system: NCI/ADR-RES
Malme-3M = test system: Malme-3M
KM12 = test system: KM12
SNB-75 = test system: SNB-75
SW-620 = test system: SW-620
EKVX = test system: EKVX
OVCAR-4 = test system: OVCAR-4
OVCAR-5 = test system: OVCAR-5
T47D = test system: T47D
NCI-H23 = test system: NCI-H23

## COc1ccc(/C=c2\c(=O)[nH]c3nc4ccccc4c(=O)n23)cc1
DU-145
  GI50: 61.2 µM (inactive)
UO-31
  GI50: 44.7 µM (inactive)
PC-3
  GI50: > 100 µM (inactive)
HOP-62
  GI50: > 100 µM (inactive)
U-251
  GI50: > 100 µM (inactive)
UACC-62
  GI50: 42 µM (inactive)
SN12C
  GI50: 55.1 µM (inactive)
RPMI-8226
  GI50: 58.3 µM (inactive)
SK-MEL-28
  GI50: 42.5 µM (inactive)
UACC-257
  GI50: 88.9 µM (inactive)
IGROV-1
  GI50: 68.4 µM (inactive)
BT-549
  GI50: 27.3 µM (inactive)
HOP-92
  GI50: 64.7 µM (inactive)
MDA-MB-231
  GI50: > 100 µM (inactive)
NCI-H522
  GI50: 37.3 µM (inactive)
SF-539
  GI50: 46.5 µM (inactive)
HCC 2998
  GI50: 80.5 µM (inactive)
OVCAR-3
  GI50: 81.5 µM (inactive)
NCI-H226
  GI50: 74.6 µM (inactive)
MOLT-4
  GI50: 56.5 µM (inactive)
COLO 205
  GI50: 60.8 µM (inactive)
RXF 393
  GI50: 46.1 µM (inactive)
SK-OV-3
  GI50: > 100 µM (inactive)
SF-268
  GI50: > 100 µM (inactive)
MDA-MB-435
  GI50: 51.2 µM (inactive)
HT-29
  GI50: 69.8 µM (inactive)
HCT-15
  GI50: 64 µM
TK-10
  GI50: > 100 µM (inactive)
A549
  GI50: 91.4 µM (inactive)
LOX IMVI
  GI50: 45.9 µM (inactive)
ACHN
  GI50: > 100 µM (inactive)
M14
  GI50: 75.2 µM (inactive)
SR
  GI50: 48.2 µM (inactive)
SK-MEL-2
  GI50: > 100 µM (inactive)
CAKI-1
  GI50: 55.8 µM (inactive)
HL-60
  GI50: 36.2 µM (inactive)
SK-MEL-5
  GI50: 73.6 µM (inactive)
Hs-578T
  GI50: > 100 µM (inactive)
786-0
  GI50: 99.5 µM (inactive)
SNB-19
  GI50: > 100 µM (inactive)
OVCAR-8
  GI50: > 100 µM (inactive)
MCF7
  GI50: 49.9 µM (inactive)
CCRF-CEM
  GI50: 39.9 µM (inactive)
HCT-116
  GI50: 70 µM (inactive)
SF-295
  GI50: > 100 µM (inactive)
NCI/ADR-RES
  GI50: > 100 µM (inactive)
Malme-3M
  GI50: 58.5 µM (inactive)
KM12
  GI50: 73.5 µM (inactive)
SNB-75
  GI50: 32.5 µM (inactive)
SW-620
  GI50: 36.1 µM (inactive)
EKVX
  GI50: 54.1 µM (inactive)
OVCAR-4
  GI50: > 100 µM (inactive)
OVCAR-5
  GI50: > 100 µM (inactive)
T47D
  GI50: 36.5 µM (inactive)
NCI-H23
  GI50: 73.8 µM (inactive)

— ChEMBL document CHEMBL1201862, “PubChem BioAssay data set” (2004)
